According to ChEMBL document CHEMBL1833878, “Cyclodepsipeptides, sesquiterpenoids, and other cytotoxic metabolites from the filamentous fungus Trichothecium sp. (MSX 51320)” (J Nat Prod, 2011):
In brackets after ≈: the same amount, converted by molar mass. *1 amine or outer side, *2 acyl side, *3 side chain or, on linkers, in order; H or OH if unused. Where a SMILES comes first, the peptide text is derived from it. [ ]: non-standard residue; d: D form. X1 = CC(C)(O)[C@H](O[*:1])C(=O)[*:2]; dNMeF = CN[C@H](Cc1ccccc1)C(=O)O; Hica(2S) = CC(C)C[C@H](O)C(=O)O; NMeL = CN[C@@H](CC(C)C)C(=O)O; Hiv = CC(C)[C@H](O)C(=O)O; NMeA = CN[C@@H](C)C(=O)O

Experiments:
[1] = tested on: MCF7; experiment: Cytotoxicity against human MCF7 cells; type: functional, cell-based
[2] = tested on: NCI-H460; experiment: Cytotoxicity against human NCI-H460 cells; type: functional, cell-based
[3] = tested on: SF-268; experiment: Cytotoxicity against human SF268 cells; type: functional, cell-based
[4] = Cytotoxicity against human HTB-177 cells; type: functional, cell-based
[5] = tested on: Staphylococcus epidermidis; experiment: Antibacterial activity against Staphylococcus epidermidis; type: functional
[6] = tested on: Enterococcus durans; experiment: Antibacterial activity against Enterococcus durans; type: functional
[7] = tested on: HT-29; experiment: Cytotoxicity against human HT-29 cells; type: functional, cell-based
[8] = Cytotoxicity against human HTB-38 cells; type: functional, cell-based
[9] = tested on: MDA-MB-435; experiment: Cytotoxicity against human MDA-MB-435 cells; type: functional, cell-based
[10] = Cytotoxicity against human HTB-129 cells; type: functional, cell-based

MIC [5] [µg/mL]	MIC [6] [µg/mL]	Structure (SMILES)	IC50 [1] [µM]	IC50 [2] [µM]	IC50 [3] [µM]	IC50 [4] [µM]	EC50 [1] [µM]	EC50 [2] [µM]	EC50 [3] [µM]	IC50 [7] [µM]	IC50 [8] [µM]	IC50 [9] [µM]	IC50 [10] [µM]
–	–	C/C=C\C(=O)O[C@@H]1CC2O[C@@H]3C=C(C)[C@@H](O)C4OCC2(O)[C@@]1(C)[C@]43C (some centres undefined)	> 10	> 10	> 10	> 10	–	–	–	–	–	–	–
100 (≈ 162 µM)	100 (≈ 162 µM)	CC(C)C[C@@H]1OC(=O)[C@H](C)NC(=O)[C@H](C(C)(C)O)OC(=O)[C@H](C)N(C)C(=O)[C@@H](C)NC(=O)[C@@H](Cc2ccccc2)N(C)C1=O [GUANGOMIDE A] (cyclo(A[Hica(2S)][dNMeF][dA][NMeA][X1]))	–	–	–	–	15	15	15	–	–	–	–
–	–	CC(C)C[C@@H]1OC(=O)[C@H](C(C)C)OC(=O)[C@H](CO)NC(=O)[C@H](C(C)C)NC(=O)[C@H](CC(C)C)N(C)C(=O)[C@H](Cc2ccccc2)NC1=O [TRICHODEPSIPEPTIDE B] (cyclo(F[NMeL]VS[Hiv][Hica(2S)]))	> 10	> 10	> 10	> 10	–	–	–	> 10	> 10	> 10	> 10
–	–	CC(C)C[C@@H]1NC(=O)[C@H](CC(C)C)N(C)C(=O)[C@H](Cc2ccccc2)NC(=O)[C@H](CC(C)C)OC(=O)[C@H](C(C)C)OC(=O)[C@H](CO)NC1=O [TRICHODEPSIPEPTIDE] (cyclo(F[NMeL]LS[Hiv][Hica(2S)]))	> 10	> 10	> 10	> 10	–	–	–	> 10	> 10	> 10	> 10
–	–	COC(=O)[C@@H]1O[C@@H](O)C(=O)[C@]2(C(O)/C=C(C)/C=C/C=C(\C)CCC=C(C)C)O[C@H]12 (some centres undefined) [TRICHOTHOSPORON A]	> 10	> 10	> 10	> 10	–	–	–	–	–	–	–
